Source: article PMC7845544 (Frontiers in Pharmacology, 2021)

Columns and labels:
immature B6C3F1 mice = test: Superovulation assay in immature mice; assay type: in vivo, mouse; conditions: 30 and 100 mg/kg, mice receiving low dose rec-hFSH (0.15 IU)
Experimental: Immature SD rats and B6C3F1 mice (both 18–21 day old females) were purchased from Charles-River laboratories (Wilmington, MA, United States and Shanghai, China). All animals were treated in accordance to Chempartner (Shanghai, China) or Embryotech (Haverhill, MA, United States) IACUC approved animal protocols. The animals were provided water and food ad libitum and housed under 12 h dark and 12 h light schedules.
Immature rats and mice were used to investigate the ability of the small molecules to induce follicular development and support ovulation as described elsewhere ([Steelman and Pohley, 1953]) with modifications ([Sriraman et al., 2014]). […] […] The isolated COC’s were treated with hyaluronidase and the total number of ovulated oocytes was determined microscopically.
[…] […] In some experiments, serum was collected from the animals prior to the ovulatory dose of hCG to determine estradiol levels. Plasma concentrations of FSHR-AA were measured during superovulation assays, except for experiments where plasma was collected for estradiol measurements.

human granulosa cells = test: Estradiol production by human granulosa cells from individual patients by diagnosis (NOR, ARA, PCOS); assay type: cell-based
Experimental: Human granulosa cells were prepared from the spent follicular fluid of women undergoing IVF treatment at Boston IVF Center (Waltham, MA, United States) and at Family Fertility Center (Baylor College of Medicine, Houston, TX, United States) following methods previously established ([Breckwoldt et al., 1996]; [Amsterdam et al., 2003]). Institutional review board approval and informed consent from the patients were obtained before collecting the follicular fluid samples. In brief, red blood cells (RBCs) in the follicular aspirate were lyzed using RBC lysis buffer (Quality Biological Inc., Gaithersburg, MD, United States), and washed extensively with PBS and DMEM/F12 containing 5% FBS, fungizone, and the antibiotics penicillin (100 IU/ml) and streptomycin (100 μg/ml). Subsequently, cells from the aspirate were plated in T75 flasks, cultured for 7 days with fresh media being replaced every other day. At the end of the culture period, cells were released from the flask by trypsin and transferred to 96-well plates (5,000 cells/well, Greiner Bio-One). Following 48 h of culture, media in culture wells was replaced with serum free media containing 0.1% BSA and 10^−7 M androstenedione. Following 24 h of serum starvation, cells were stimulated with fresh media (0.1% BSA, 10^−7 M androstenedione) with FSH or compound for 48 h. Supernatant was collected and stored at −80C for determination of estradiol by ELISA.
Clinical definitions of patient sub-populations for patients at Texas Fertility followed guidelines outlined by the Practice Committee of the American Society for Reproductive Medicine ([Practice Committee of the American Society for Reproductive Medicine, 2015]). […] Advanced reproductive age (ARA) was defined as woman of 35 years old or greater in age, based on the definition of advanced maternal age by Society for Maternal-Fetal Medicine. Polycystic Ovarian Syndrome (PCOS) is a patient with two out of the three Rotterdam criteria ([Rotterdam ESHRE/ASRM-Sponsored PCOS Consensus Workshop Group, 2004]) which includes hyperandrogenism (hirsutism or biochemical), oligomenorrhea or amenorrhea, and/or polycystic ovaries on ultrasound.

COc1cc2c(cc1-c1cnn(CCO)c1)-c1c(c(C(=O)N(C)C(C)(C)C)nn1-c1cc(Cl)cc(Cl)c1)CO2 [TOP5300]
follicular growth and ovulation (immature B6C3F1 mice): dose-dependent increases in follicular growth and ovulation
fold higher concentration than rec-hFSH required to stimulate maximum estradiol production (human granulosa cells): approximately 20 fold
Estradiol (pg/ml), ARA (n = 6) (human granulosa cells; FSH (20 nM) or TOP5300 (400 nM), advanced reproductive age, mean ± SD): 10,648 ± 7,338 pg/ml
Estradiol (pg/ml), NOR (n = 2) (human granulosa cells; FSH (20 nM) or TOP5300 (400 nM), normal ovarian reserve, mean): 4,829 pg/ml
Estradiol (pg/ml), PCOS (n = 4) (human granulosa cells; FSH (20 nM) or TOP5300 (400 nM), polycystic ovarian disease, mean ± SD): 1,276 + 1,563 pg/ml
